The values that follow come from paper PMC8752827, “Towards a generic prototyping approach for therapeutically-relevant peptides and proteins in a cell-free translation system” (Nature Communications, 2022).

For experiment [1], the system named is peptidyl-prolyl isomerase. The settings on record: 10 μM inhibitor in Ec CFS translation reaction; Supplementary Fig. 19. The protocol: For details, refer to a procedure overview in the Supplementary Methods. Briefly, E. coli S30 extract was prepared as described by Schwarz et al.[68] with minor modifications. Briefly, cells were cultivated in 5–10 L of filter-sterilized TBGG media (tryptone 12 g/L, yeast extract 24 g/L, glycerol 8 mL/L, glucose 1 g/L, KH2PO4 2.31 g/L, K2HPO4 2.54 g/L) to OD 3.5, pre-chilled with 5 × 200 or 10 × 200 mL of –80 °C pre-frozen packs of LB broth and spun at 2.5 kg for 15 min. The cell pellet from the final wash was resuspended in 200 % (vol/wt) of S30B buffer and disrupted using fluidic disruption (Constant Systems, continuous flow mode) at 20 kpsi at 4 °C. Cell homogenate was cleared by two consecutive 30 min centrifugation steps at 30 kg at 4 °C while collecting the top ¾ of supernatant every time. The final supernatant was adjusted to 0.4 M with 5 M NaCl followed by 45 min incubation at 42 °C in a water bath. […]
Fluorescence DHFR activity assay was performed by monitoring the change in NADPH fluorescence (Ex 340 nm, […]) upon its conversion to NADP^+ in 200 µL of buffer containing 20 mM Tris-HCl pH 7.5, 100 mM NaCl, 1 mM Mg(OAc)2, 0.012% Tween 20, 2.5 mM DTT in a black 96-well plate (Corning). […] Fluorescence changes were recorded for 4 h. […]

Experiment [2] has as its system Drosophila melanogaster fruit flies. Nature of the experiment: Insecticidal activity assay (microinjection, LD50). It counts as in vivo. The settings on record: microinjection of 50 nL into female Drosophila melanogaster, lethal effects at 24 h; thrombin-cleaved cell-free Dc1a. The protocol:
The insecticidal activity of the Dc1a and its cell-free produced analog was tested by microinjection in female Drosophila melanogaster fruit flies aged 3–4 days with an average weight of 0.8–0.9 mg according to the previously described method. Briefly, the C-terminally unprocessed Dc1a (Dc1a-GTGSGG-[…]) was dissolved in water for injection, and water was used as the respective negative control. The thrombin-cleaved Dc1a sample (Dc1a-GTGSGG-R) contained thrombin and the respective amount of thrombin was added to the control sample. The injection volume was 50 nL and three repeats of seven doses (each in n = 8 fruit flies) were used for each Dc1a analog. Female Drosophila were cooled on ice before injection. […] The number of control flies affected at the respective post-injection time was subtracted from the number of affected flies.

A further experiment concerns the target T1, Trypsin (Bos taurus, UniProt P00760).
T1 construct: gene PRSS1
T1 sequence (P00760 24-246): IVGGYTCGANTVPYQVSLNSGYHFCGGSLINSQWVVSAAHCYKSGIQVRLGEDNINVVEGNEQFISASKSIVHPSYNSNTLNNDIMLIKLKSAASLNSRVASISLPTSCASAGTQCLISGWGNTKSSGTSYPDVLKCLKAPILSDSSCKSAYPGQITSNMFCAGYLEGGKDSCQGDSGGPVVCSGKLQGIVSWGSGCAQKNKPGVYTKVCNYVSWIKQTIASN
The experiment is described as follows: Trypsin-inhibitory assay. The class given is biochemical. As to conditions: for HillSlope / LogEC50: trypsin inhibition curve, nonlinear fit, variable slope, best-fit value. The procedure:
Trypsin was freshly prepared at 400 pM in the assay buffer containing 0.1 M NaCl, 10 mM CaCl2, 0.005% Triton X-100, 0.1 M Tris-HCl pH 8.0. […] After incubation residual trypsin activity was measured by adding the quenched fluorescent peptide substrate Boc-Q-A-R- 7-amido-4-methyl-coumarin to a final concentration of 10 μM. The fluorescence increase upon the release of 7-amido-4-methyl-coumarin was monitored on Infinite M1000 Pro plate reader (Tecan) every 30 s using excitation and emission wavelengths of 360 and 460 nm, respectively.

Entries after “also recorded” stand apart in the source; their conditions may differ. Where a SMILES comes first, the peptide text is derived from it. Bridges are numbered along the chain shown (N, C = ends). Where no end group is shown, it is not given here.

Take `CO[C@H]1C[C@@H]2CC[C@@H](C)[C@@](O)(O2)C(=O)C(=O)N2CCCC[C@H]2C(=O)O[C@H]([C@H](C)C[C@@H]2CC[C@@H](O)[C@H](OC)C2)CC(=O)[C@H](C)/C=C(\C)[C@@H](O)[C@@H](OC)C(=O)[C@H](C)C[C@H](C)/C=C/C=C/C=C/1C` [rapamycin, Rapamycin]: the “effect on the gain of hDHFR activity by exposure of GFP-hDHFR to lysate (post-translational capture)” value in experiment [1] was “eliminated the beneficial effect of protein exposure to lysate in Ec CFS”.

Consider “Dc1a-GTGSGG-R (bicyclic or more) [cell-free produced Dc1a harboring GTGSGGR on its C-terminus after thrombin cleavage]”, for which the “insecticidal activity, in words” value in experiment [2] is given as “showed the expected biological activity; also recorded: insecticidal activity similar to the synthetic wild-type toxin”.

Take “ILKKCRRDSDCPGACICRGNGYCGSGSDGGVCPKGAGRGSIDTWV (disulfide 5-17, 11-23, 15-32) [prmMcoTI-RGS]”: the EC50 on Trypsin turned out to be 0.167 nM.

Consider `CC[C@H](C)[C@H](NC(=O)[C@@H]1CCCN1C(=O)[C@@H]1CCCN1C(=O)[C@@H](NC(=O)[C@@H](N)CO)[C@@H](C)CC)C(=O)N[C@H]1CSSC[C@@H](C(=O)N[C@H](C(=O)N[C@@H](CCCCN)C(=O)O)[C@@H](C)O)NC(=O)[C@H](CCC(N)=O)NC(=O)CNC(=O)[C@H](CC(=O)O)NC(=O)[C@@H]2CCCN2C(=O)[C@H](Cc2ccccc2)NC1=O` [Cell-free_oMut-SFTI] (H-SIPPICFPDGQCTK-OH; disulfide 6-12; C-terminus assumed), for which, at Trypsin, the HillSlope was -1.405 and the LogEC50 is 2.696 log10 [SFTI], pM.

As to `CC[C@H](C)[C@@H]1NC(=O)[C@@H]2CCCN2C(=O)[C@@H]2CCCN2C(=O)[C@H]([C@@H](C)CC)NC(=O)[C@H](CO)NC(=O)[C@H](CCCCN)NC(=O)[C@H]([C@@H](C)O)NC(=O)[C@@H]2CSSC[C@H](NC1=O)C(=O)N[C@@H](Cc1ccccc1)C(=O)N1CCC[C@H]1C(=O)N[C@@H](CC(=O)O)C(=O)NCC(=O)N[C@@H](CCCNC(=N)N)C(=O)N2` [Chem_cyc-SFTI], at Trypsin, the HillSlope is -1.291 and the LogEC50 is 2.234 log10 [SFTI], pM.

At Trypsin, “GGVCPKILKKCRRDSDCPGACICRGNGYCGSGSDGLPRGSIDTWV (disulfide 4-21, 11-23, 17-29) [wtMCoTI-RGS]” yielded an EC50 of 0.609 nM. Further, the “trypsin-inhibitory activity / Ki for trypsin, compared in words” value on Trypsin (trypsin-inhibitory assay, comparison with the named counterpart) is reported as “almost fourfold higher Ki for trypsin”.

What is called EC50 is the midpoint of the concentration-response curve.
